From ChEMBL document CHEMBL5223100, “Homobivalent, Trivalent, and Covalent PROTACs: Emerging Strategies for Protein Degradation” (J Med Chem, 2022)

How the values were obtained:
[1] = biological target: Transcription intermediary factor 1-alpha (Homo sapiens) (UniProt O15164); test: Induction of TRIM24 degradation in HEK293FT cells assessed as maximum degradation at 5 uM relative to control; type: cell-based
[2] = biological target: Transcription intermediary factor 1-alpha (Homo sapiens, UniProt O15164); test: Inhibition of His-tagged TRIM24 (unknown origin) expressed in Escherichia coli BL21(DE3)pLysS competent cells using biotinylated-H3K23ac peptide as substrate incubated for 30 mins by Alphascreen assay
HCC827 [3] = test: Antitumor activity against human HCC827 cells xenografted in mouse assessed as tumor growth inhibition at 30 mg/kg; type: functional; details: read-out: TGI
[4] = biological target: von Hippel-Lindau disease tumor suppressor/Epidermal growth factor receptor (Homo sapiens, UniProt P00533+P40337); test: Protac activity at VHL/EGFR Del19 mutant in human HCC827 cells; type: cell-based
Chain of von Hippel-Lindau disease tumor suppressor/Epidermal growth factor receptor (P00533 whole entry, looked up, stated change not applied): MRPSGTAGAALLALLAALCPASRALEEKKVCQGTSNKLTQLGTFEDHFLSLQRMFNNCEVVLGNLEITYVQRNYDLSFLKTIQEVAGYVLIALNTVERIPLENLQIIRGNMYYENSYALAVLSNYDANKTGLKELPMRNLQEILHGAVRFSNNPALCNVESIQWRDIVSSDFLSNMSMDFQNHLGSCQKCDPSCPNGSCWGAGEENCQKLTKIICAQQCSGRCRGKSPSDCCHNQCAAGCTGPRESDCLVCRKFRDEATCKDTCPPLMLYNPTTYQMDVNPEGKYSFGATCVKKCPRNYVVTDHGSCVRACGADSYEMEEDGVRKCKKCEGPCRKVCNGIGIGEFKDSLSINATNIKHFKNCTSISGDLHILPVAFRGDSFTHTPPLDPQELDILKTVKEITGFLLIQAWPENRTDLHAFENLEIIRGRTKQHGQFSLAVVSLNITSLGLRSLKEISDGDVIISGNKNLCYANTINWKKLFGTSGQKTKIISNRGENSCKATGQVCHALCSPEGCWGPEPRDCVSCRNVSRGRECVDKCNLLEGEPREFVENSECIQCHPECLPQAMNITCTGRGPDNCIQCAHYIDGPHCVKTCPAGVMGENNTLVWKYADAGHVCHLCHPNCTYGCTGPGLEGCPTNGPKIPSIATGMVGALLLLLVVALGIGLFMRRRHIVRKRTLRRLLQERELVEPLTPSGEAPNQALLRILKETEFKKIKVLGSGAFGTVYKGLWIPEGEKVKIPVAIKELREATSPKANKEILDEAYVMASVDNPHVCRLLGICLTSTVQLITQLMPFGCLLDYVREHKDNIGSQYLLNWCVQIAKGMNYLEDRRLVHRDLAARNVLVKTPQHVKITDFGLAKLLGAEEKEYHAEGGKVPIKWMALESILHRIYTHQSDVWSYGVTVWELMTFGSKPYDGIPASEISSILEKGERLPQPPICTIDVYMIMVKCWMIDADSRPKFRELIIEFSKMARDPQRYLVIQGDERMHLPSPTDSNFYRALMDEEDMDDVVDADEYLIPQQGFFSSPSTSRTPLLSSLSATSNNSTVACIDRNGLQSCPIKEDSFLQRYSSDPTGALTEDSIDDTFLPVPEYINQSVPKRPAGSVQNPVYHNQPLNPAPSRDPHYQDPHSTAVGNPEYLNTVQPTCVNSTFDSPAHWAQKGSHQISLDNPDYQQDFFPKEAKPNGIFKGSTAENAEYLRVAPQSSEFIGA
Chain of von Hippel-Lindau disease tumor suppressor/Epidermal growth factor receptor (P40337 whole entry, looked up, stated change not applied): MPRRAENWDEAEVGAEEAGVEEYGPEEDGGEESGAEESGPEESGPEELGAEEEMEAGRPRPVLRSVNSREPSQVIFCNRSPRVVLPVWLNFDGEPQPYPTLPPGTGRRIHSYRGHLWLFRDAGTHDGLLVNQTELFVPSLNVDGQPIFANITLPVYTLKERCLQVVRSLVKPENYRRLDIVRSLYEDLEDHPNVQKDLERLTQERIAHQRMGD

HCC827 [5] = test: Antiproliferative activity against human HCC827 cells harboring EGFRDel19 mutant; type: functional, cell-based
[6] = tested on: von Hippel-Lindau disease tumor suppressor/Epidermal growth factor receptor (Homo sapiens), P00533+P40337 [UNDEFINED MUTATION]; test: Protac activity at VHL/EGFR Del19 mutant in human HCC827 cells assessed as maximum degradation relative to control; type: cell-based
Chain of von Hippel-Lindau disease tumor suppressor/Epidermal growth factor receptor (Homo sapiens), P00533+P40337 [UNDEFINED MUTATION] (P00533 whole entry, looked up, stated change not applied): as the sequence (P00533 whole entry, looked up, stated change not applied) above
Chain of von Hippel-Lindau disease tumor suppressor/Epidermal growth factor receptor (Homo sapiens), P00533+P40337 [UNDEFINED MUTATION] (P40337 whole entry, looked up, stated change not applied): as the sequence (P40337 whole entry, looked up, stated change not applied) above

NCI-H1975 = test: Antiproliferative activity against human NCI-H1975 cells harboring EGFR L858R/T790M double mutant; type: functional, cell-based
[7] = biological target: E3 ubiquitin-protein ligase Mdm2 (Homo sapiens, UniProt Q00987); test: Displacement of p53 from human MDM2 by HTRF assay
[8] = Half life in mouse; type: ADME, organism-based; details: in vivo
A549 [9] = test: Antitumor activity against human A549 cells xenografted model assessed as tumor growth inhibition at 30 mg/kg; type: functional; details: read-out: TGI
[10] = AUC in mouse; type: ADME, organism-based; details: in vivo
HCT-116 [11] = test: Antiproliferative activity against p53 knockout human HCT-116 cells; type: functional, cell-based
A549 [12] = test: Antiproliferative activity against human A549 cells; type: functional, cell-based
HCT-116 [13] = test: Antiproliferative activity against human HCT-116 cells; type: functional, cell-based
MV4-11 = test: Antiproliferative activity against human MV4-11 cells
[14] = biological target: Bromodomain-containing protein 3 (Homo sapiens, UniProt Q15059); test: Induction of BRD3 degradation in HEK293 cells after 4 hrs; type: cell-based
[15] = biological target: Bromodomain-containing protein 2 (Homo sapiens, UniProt P25440); test: Induction of BRD2 degradation in HEK293 cells after 4 hrs; type: cell-based
[16] = biological target: T1, Bromodomain-containing protein 4 (Homo sapiens, UniProt O60885); test: Induction of BRD4 degradation in HEK293 cells after 4 hrs; type: cell-based
Protein cereblon = Protein cereblon (Homo sapiens, UniProt Q96SW2); test: Induction of CRBN degradation in human MM1.S cells assessed as maximum degradation at 100 nM incubated for 24 hrs relative to control; type: cell-based
[17] = biological target: T2, Tyrosine-protein kinase BTK (Homo sapiens, UniProt Q06187); test: Induction of BTK degradation in human MINO cells; type: cell-based
T2 sequence (Q06187 whole entry): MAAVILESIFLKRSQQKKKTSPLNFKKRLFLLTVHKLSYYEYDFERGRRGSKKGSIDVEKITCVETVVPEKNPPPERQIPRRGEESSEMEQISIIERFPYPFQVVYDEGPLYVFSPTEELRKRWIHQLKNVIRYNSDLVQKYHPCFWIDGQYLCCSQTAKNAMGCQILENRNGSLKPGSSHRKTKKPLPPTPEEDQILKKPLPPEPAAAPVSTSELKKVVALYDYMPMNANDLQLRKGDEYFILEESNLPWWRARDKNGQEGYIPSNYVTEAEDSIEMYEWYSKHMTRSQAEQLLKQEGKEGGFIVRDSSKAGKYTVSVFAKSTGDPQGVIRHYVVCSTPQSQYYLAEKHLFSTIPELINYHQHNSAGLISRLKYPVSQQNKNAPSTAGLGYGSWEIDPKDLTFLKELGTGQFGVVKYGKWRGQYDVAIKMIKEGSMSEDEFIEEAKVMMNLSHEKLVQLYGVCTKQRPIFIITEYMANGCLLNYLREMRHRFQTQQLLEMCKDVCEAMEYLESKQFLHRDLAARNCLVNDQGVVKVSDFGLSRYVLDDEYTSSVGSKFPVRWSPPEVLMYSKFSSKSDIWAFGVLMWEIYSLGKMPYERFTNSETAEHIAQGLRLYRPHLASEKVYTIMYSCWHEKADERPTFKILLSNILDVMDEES

[18] = biological target: T2, Tyrosine-protein kinase BTK; test: Induction of BTK degradation in human MINO cells assessed as maximum degradation relative to control; type: cell-based
[19] = biological target: T3, von Hippel-Lindau disease tumor suppressor (Homo sapiens, UniProt P40337); test: Binding affinity to human VHL by isothermal calorimetric assay
Target sequence in this assay (P40337 whole entry): as the sequence (P40337 whole entry, looked up, stated change not applied) above

[20] = biological target: T3, von Hippel-Lindau disease tumor suppressor; test: Induction of pVHL30 degradation in human HeLa cells incubated for 4 hrs; type: cell-based
[21] = biological target: ALK tyrosine kinase receptor (Homo sapiens) (UniProt Q9UM73); test: Induction of ALK degradation in human SU-DHL-1 cells assessed as maximum degradation at 30 nM after 12 hrs relative to control; type: cell-based
Chain of ALK tyrosine kinase receptor (Homo sapiens) (Q9UM73 19-1620 limits assumed): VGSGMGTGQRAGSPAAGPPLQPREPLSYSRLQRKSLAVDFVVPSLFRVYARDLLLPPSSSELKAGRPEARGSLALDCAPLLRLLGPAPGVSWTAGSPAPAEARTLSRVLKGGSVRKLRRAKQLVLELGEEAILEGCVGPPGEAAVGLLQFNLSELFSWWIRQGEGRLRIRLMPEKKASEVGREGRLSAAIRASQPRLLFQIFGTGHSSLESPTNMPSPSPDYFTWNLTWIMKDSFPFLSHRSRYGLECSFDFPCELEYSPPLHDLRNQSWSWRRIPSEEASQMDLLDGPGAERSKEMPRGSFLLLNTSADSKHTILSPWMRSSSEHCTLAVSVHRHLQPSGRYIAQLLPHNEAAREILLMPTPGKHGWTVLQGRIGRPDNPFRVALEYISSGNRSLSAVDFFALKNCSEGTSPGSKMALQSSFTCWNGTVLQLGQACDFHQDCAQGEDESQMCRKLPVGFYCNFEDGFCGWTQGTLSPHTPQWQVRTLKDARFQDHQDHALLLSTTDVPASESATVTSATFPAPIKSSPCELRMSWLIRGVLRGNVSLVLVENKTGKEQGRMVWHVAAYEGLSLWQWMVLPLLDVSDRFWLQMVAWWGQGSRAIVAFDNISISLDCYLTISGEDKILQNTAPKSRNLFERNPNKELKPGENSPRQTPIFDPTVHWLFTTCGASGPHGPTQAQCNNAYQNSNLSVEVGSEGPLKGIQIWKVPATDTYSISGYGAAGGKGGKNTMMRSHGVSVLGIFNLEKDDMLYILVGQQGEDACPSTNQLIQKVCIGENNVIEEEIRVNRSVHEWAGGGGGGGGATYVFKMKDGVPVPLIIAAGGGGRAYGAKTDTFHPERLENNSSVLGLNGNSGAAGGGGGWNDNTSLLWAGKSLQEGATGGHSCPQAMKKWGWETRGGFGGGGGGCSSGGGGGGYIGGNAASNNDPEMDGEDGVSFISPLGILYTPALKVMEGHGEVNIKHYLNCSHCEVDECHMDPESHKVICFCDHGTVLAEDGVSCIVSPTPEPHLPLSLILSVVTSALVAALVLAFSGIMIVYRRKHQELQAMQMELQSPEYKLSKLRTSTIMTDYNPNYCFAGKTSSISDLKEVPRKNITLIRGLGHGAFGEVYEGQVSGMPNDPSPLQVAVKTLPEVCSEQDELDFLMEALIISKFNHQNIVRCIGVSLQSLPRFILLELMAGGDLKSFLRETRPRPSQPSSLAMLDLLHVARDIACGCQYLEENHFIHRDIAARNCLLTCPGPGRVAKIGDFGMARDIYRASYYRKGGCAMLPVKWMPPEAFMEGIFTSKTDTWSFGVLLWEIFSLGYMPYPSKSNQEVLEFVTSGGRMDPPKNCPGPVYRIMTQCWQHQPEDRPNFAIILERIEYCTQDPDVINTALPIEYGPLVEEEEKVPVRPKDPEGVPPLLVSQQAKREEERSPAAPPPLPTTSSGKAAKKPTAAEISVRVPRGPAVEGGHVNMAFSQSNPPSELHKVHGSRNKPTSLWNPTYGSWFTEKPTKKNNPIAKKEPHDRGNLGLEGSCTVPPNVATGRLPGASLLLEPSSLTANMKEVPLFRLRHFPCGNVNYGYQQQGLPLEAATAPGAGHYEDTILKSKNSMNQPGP

SU-DHL-1 = test: Antiproliferative activity against human SU-DHL-1 cells; type: functional, cell-based
[22] = biological target: T1, Bromodomain-containing protein 4; test: Induction of BRD4 degradation in human HeLa cells assessed as maximum degradation at 30 nM after 12 hrs relative to control; type: cell-based
HeLa = test: Antiproliferative activity against human HeLa cells; type: functional, cell-based
HFF-1 = test: Antiproliferative activity against human HFF-1 cells; type: functional, cell-based
[23] = biological target: ALK tyrosine kinase receptor (Homo sapiens) (UniProt Q9UM73); test: Induction of ALK degradation in human SU-DHL-1 cells assessed as maximum degradation at 300 nM after 12 hrs relative to control; type: cell-based

CCCOc1cccc(Oc2cc3c(cc2NS(=O)(=O)c2cccc(C(=O)NCCOCCOCCOCC(=O)N[C@@H](C(=O)N4C[C@@H](O)C[C@@H]4C(=O)NCc4ccc(-c5scnc5C)cc4)C(C)(C)C)c2)n(C)c(=O)n3C)c1
Emax [1]: 72% | IC50 [2]: 338 nM

Cc1ncsc1-c1ccc(CNC(=O)[C@H]2C[C@H](O)CN2C(=O)[C@H](NC(=O)CCCCCCCCCCn2cc(COc3cc4ncnc(Nc5ccc(F)c(Cl)c5)c4cc3NC(=O)/C=C/N3CCCCC3)nn2)C(C)(C)C)cc1
inhibition in vivo at 30 mg/kg (HCC827 [3]): 90% | DC50 [4]: 3.57 nM | IC50 (HCC827 [5]): 6 nM | Emax [6]: 91% | IC50 (NCI-H1975): > 20 nM

CCOc1cc(C(C)(C)C)ccc1C1=N[C@@H](c2ccc(Cl)cc2)[C@@H](c2ccc(Cl)cc2)N1C(=O)N1CCN(CC(=O)NCCOCCOCCOCCNC(=O)CN2CCN(C(=O)N3C(c4ccc(C(C)(C)C)cc4OCC)=N[C@H](c4ccc(Cl)cc4)[C@@H]3c3ccc(Cl)cc3)CC2=O)C(=O)C1
Ki [7]: 90 nM | half-life [8]: 9.6 h | inhibition in vivo at 30 mg/kg (A549 [9]): 52.4% | AUC [10]: 42800 ng·h/mL | IC50 (HCT-116 [11]): 21000 nM | IC50 (A549 [12]): 580 nM | IC50 (HCT-116 [13]): 1100 nM

Cc1ncsc1-c1ccc(CNC(=O)[C@@H]2C[C@@H](O)CN2C(=O)[C@@H](NC(=O)OCC(C)(COCCOCCOCCNC(=O)C[C@@H]2N=C(c3ccc(Cl)cc3)c3c(sc(C)c3C)-n3c(C)nnc32)COCCOCCOCCNC(=O)C[C@@H]2N=C(c3ccc(Cl)cc3)c3c(sc(C)c3C)-n3c(C)nnc32)C(C)(C)C)cc1
IC50 (MV4-11): 1.1 nM | DC50 [14]: 3.3 nM | DC50 [15]: 1.1 nM | DC50 [16]: 0.7 nM

Cc1ncsc1-c1ccc(CNC(=O)[C@@H]2C[C@@H](O)CN2C(=O)[C@@H](NC(=O)CCCCOCCCCCOCCCCCCNc2cccc3c2C(=O)N(C2CCC(=O)NC2=O)C3=O)C(C)(C)C)cc1 (some centres undefined)
Emax (Protein cereblon): > 90%

Nc1ncnc2c1c(-c1ccc(Oc3ccccc3)cc1)nn2[C@@H]1CCCN(C(=O)CCCCCCOCCOCCOCCOCCOc2cccc3c2C(=O)N(C2CCC(=O)NC2=O)C3=O)C1 (some centres undefined)
DC50 [17]: 2.2 nM | Emax [18]: 97%

Cc1ncsc1-c1ccc(CNC(=O)[C@@H]2C[C@@H](O)CN2C(=O)[C@@H](NC(=O)COCCOCCOCCOCCOCCOC(=O)N[C@H](C(=O)N2C[C@H](O)C[C@H]2C(=O)NCc2ccc(-c3scnc3C)cc2)C(C)(C)C)C(C)(C)C)cc1
Kd [19]: 11 nM | DC50 [20]: < 100 nM | EC99 [20]: 10 nM

CC(C)(/C=C(\C#N)C(=O)N1CCC[C@@H](n2nc(-c3ccc(Oc4ccccc4)cc3)c3c(N)ncnc32)C1)CCCOCCOCCOCCOCCOc1cccc2c1C(=O)N(C1CCC(=O)NC1=O)C2=O (some centres undefined)
DC50 [17]: 6 nM | Emax [18]: 85%

Cc1cc(Nc2ncc(Cl)c(Nc3ccccc3S(=O)(=O)C(C)C)n2)c(OC(C)C)cc1C1CCN(CC(=O)NCCNc2cccc3c2C(=O)N(C2CCC(=O)NC2=O)C3=O)CC1 (centres undefined)
Emax [21]: 90% | IC50 (SU-DHL-1): 16 nM

Cc1ncsc1-c1ccc([C@H](C)NC(=O)[C@@H]2C[C@@H](OC(=O)CCCCn3cc(CNC(=O)CC[C@H](NC(=O)c4ccc(NCc5cnc6nc(N)[nH]c(=O)c6n5)cc4)C(=O)O)nn3)CN2C(=O)[C@@H](NC(=O)COCCCOCCNC(=O)C[C@@H]2N=C(c3ccc(Cl)cc3)c3c(sc(C)c3C)-n3c(C)nnc32)C(C)(C)C)cc1
Emax [22]: 100% | IC50 (HeLa): 246 nM | IC50 (HFF-1): > 10000 nM

Cc1sc2c(c1C)C(c1ccc(Cl)cc1)=N[C@@H](CC(=O)NCCOCCOCCOCC(C)(COCCOCCOCCNC(=O)C[C@@H]1N=C(c3ccc(Cl)cc3)c3c(sc(C)c3C)-n3c(C)nnc31)COC(=O)NCCNc1cccc3c1C(=O)N(C1CCC(=O)NC1=O)C3=O)c1nnc(C)n1-2 (some centres undefined)
IC50 (MV4-11): 94.6 nM

Cc1cc(Nc2ncc(Cl)c(Nc3ccccc3S(=O)(=O)C(C)C)n2)c(OC(C)C)cc1C1CCN(CCCCC(=O)N[C@H](C(=O)N2C[C@H](OC(=O)CCCCn3cc(CNC(=O)CC[C@H](NC(=O)c4ccc(NCc5cnc6nc(N)[nH]c(=O)c6n5)cc4)C(=O)O)nn3)C[C@H]2C(=O)N[C@@H](C)c2ccc(-c3scnc3C)cc2)C(C)(C)C)CC1
Emax [23]: 100% | IC50 (SU-DHL-1): 200 nM
